# Biological target: human H3 receptor (Homo sapiens (Human), UniProt Q9Y5N1)
# Experiment: Human H3 receptor HTRF cAMP assay
# Assay type: cell-based
# Conditions: HEK293 cells expressing the human H3 receptor, forskolin 2 μM; read-out: IC50 H3R
# Excerpt: Homogeneous time-resolved fluorescence assays (HTRF®, Cisbio) detect levels of cAMP in lysed cell preparations using a europium or terbium cryptate-labeled anti-cAMP antibody and fluorophore-labeled cAMP (cAMP-d2). In the absence of exogenous cAMP, the anti-cAMP antibody binds to cAMP-d2. Photoexcitation of the cryptate donor results in a combination of cryptate emission at 620 nm and fluorescence resonance energy transfer (FRET) from the cryptate to the acceptor d2 fluorophore, which then fluoresces at 665 nm. The 620/665 nm emission ratio is monitored. In the presence of exogenous cAMP, which competes with cAMP-d2 for binding to the anti-cAMP antibody, FRET is decreased and the […], providing a sensitive and accurate means to measure cAMP levels in biological assays.
# Compounds of the present invention were evaluated using the human H3 receptor (H3R) HTRF cAMP assay. In this assay, HEK293 cells expressing the human H3 receptor were suspended in PBS containing 100 μM IBMX and plated into 384-well assay plates (Perkin Elmer Proxiplate 384-Plus; 15,000 cells per well; 5 μL plating volume) and allowed to equilibrate for an hour. Test compounds were serially diluted in 100% DMSO and then further diluted in PBS containing forskolin (2 μM). Test compounds (5 μL) were then added to the assay plate and the mixture was incubated for 1 hour. HTRF assay reagents (Cisbio, Dynamic 2 cAMP Kit), cAMP-d2 and cryptate-labeled anti-cAMP antibody, are mixed with cell lysis buffer and added to the assay plate. After 1-hour incubation with these reagents, the assay plate was read on an HTRF-compatible microplate reader (Perkin Elmer EnVision or BMG Pherastar). A cAMP standard curve was included on each assay plate and HTRF emission ratios for test compounds were fit to this curve to generate accurate measures of cAMP levels in each test well.
# human H3 receptor, sequence (Q9Y5N1 whole entry): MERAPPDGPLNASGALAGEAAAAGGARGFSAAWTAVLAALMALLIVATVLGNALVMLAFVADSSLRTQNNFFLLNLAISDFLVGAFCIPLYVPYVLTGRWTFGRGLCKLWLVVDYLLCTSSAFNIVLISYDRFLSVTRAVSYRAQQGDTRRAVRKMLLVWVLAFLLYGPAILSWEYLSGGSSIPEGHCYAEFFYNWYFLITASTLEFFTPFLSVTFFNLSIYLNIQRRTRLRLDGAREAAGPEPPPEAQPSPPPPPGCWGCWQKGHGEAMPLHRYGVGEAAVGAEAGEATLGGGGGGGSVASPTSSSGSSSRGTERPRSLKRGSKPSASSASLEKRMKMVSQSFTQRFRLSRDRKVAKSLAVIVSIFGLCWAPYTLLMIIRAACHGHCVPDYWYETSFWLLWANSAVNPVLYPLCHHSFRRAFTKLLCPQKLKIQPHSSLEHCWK
row,Structure (SMILES),IC50
1,"C[C@@H]1CCCN1CCc1ccc(-c2ccc(C(C)(C)C(=O)O)cc2)cc1 [Compound 10, (R)-2-Methyl-2-(4′-(2-(2-methylpyrrolidin-1-yl)ethyl)biphenyl-4-yl)propanoic Acid]",3.1 nM
2,"C[C@@H]1CCCN1CCc1ccc(-c2ccc(CCc3nnn[nH]3)cc2)cc1 [Compound 44, (R)-5-(2-(4′-(2-(2-Methylpyrrolidin-1-yl)ethyl)biphenyl-4-yl)ethyl)-1H-tetrazole]",6.9 nM
3,"C[C@@H]1CCCN1CCc1ccc(-c2ccc(CCn3cnnn3)cc2)cc1 [Compound 7, (R)-1-(2-(4′-(2-(2-Methylpyrrolidin-1-yl)ethyl)biphenyl-4-yl)ethyl)-1H-tetrazole]",0.93 nM
4,"C[C@@H]1CCCN1CCc1ccc(-c2ccc(CCC(=O)NC(C)(C)C(=O)OC(C)(C)C)cc2)cc1 [Compound 12, (R)-tert-Butyl 2-Methyl-2-(3-(4′-(2-(2-methylpyrrolidin-1-yl)ethyl)biphenyl-4-yl)propanamido)propanoate]",0.95 nM
5,"C[C@H](NC(=O)CCc1ccc(-c2ccc(CCN3CCC[C@H]3C)cc2)cc1)C(=O)OC(C)(C)C [Compound 13, (S)-tert-Butyl 2-(3-(4′-(2-((R)-2-Methylpyrrolidin-1-yl)ethyl)biphenyl-4-yl)propanamido)propanoate]",2.1 nM
6,"C[C@@H]1CCCN1CCc1ccc(-c2ccc(CCn3ncnn3)cc2)cc1 [Compound 8, (R)-2-(2-(4′-(2-(2-Methylpyrrolidin-1-yl)ethyl)biphenyl-4-yl)ethyl)-2H-tetrazole]",1.2 nM
7,"C[C@@H]1CCCN1CCc1ccc(-c2ccc(CCC(=O)NCC(=O)OC(C)(C)C)cc2)cc1 [Compound 26, (R)-tert-Butyl 2-(3-(4′-(2-(2-Methylpyrrolidin-1-yl)ethyl)biphenyl-4-yl)propanamido)acetate]",3.8 nM

# Continued, values first:
row,IC50,Structure (SMILES)
1,8.1 nM,"C[C@@H]1CCCN1CCc1ccc(-c2ccc(CC(=O)O)cc2)cc1 [Compound 2, (R)-2-(4′-(2-(2-Methylpyrrolidin-1-yl)ethyl)biphenyl-4-yl)acetic Acid]"
2,3 nM,"CCOC(=O)C1CCCCC1NC(=O)C1(c2ccc(-c3ccc(CCN4CCC[C@H]4C)cc3)cc2)CCCC1 (stereo in doubt) [Compound 20, (1R,2S)-Ethyl 2-(1-(4′-(2-((R)-2-Methylpyrrolidin-1-yl)ethyl)biphenyl-4-yl)cyclopentanecarboxamido)cyclohexanecarboxylate]"
3,0.99 nM,"COC(=O)CNC(=O)CCc1ccc(-c2ccc(CCN3CCC[C@H]3C)cc2)cc1 [Compound 24, (R)-Methyl 2-(3-(4′-(2-(2-Methylpyrrolidin-1-yl)ethyl)biphenyl-4-yl)propanamido)acetate]"
4,5.5 nM,"C[C@@H]1CCCN1CCc1ccc(-c2ccc(COCC(=O)O)cc2)cc1 [Compound 5, (R)-2-((4′-(2-(2-Methylpyrrolidin-1-yl)ethyl)biphenyl-4-yl)methoxy)acetic Acid]"
5,1.2 nM,"COC(=O)C(C)(C)NC(=O)c1ccc(-c2ccc(CCN3CCC[C@H]3C)cc2)cc1 [Compound 38, (R)-Methyl 2-Methyl-2-(4′-(2-(2-methylpyrrolidin-1-yl)ethyl)biphenyl-4-ylcarboxamido)propanoate]"
6,1.5 nM,"COC(=O)CCCNC(=O)C1(c2ccc(-c3ccc(CCN4CCC[C@H]4C)cc3)cc2)CCCC1 [Compound 16, (R)-Methyl 4-(1-(4′-(2-(2-Methylpyrrolidin-1-yl)ethyl)biphenyl-4-yl)cyclopentanecarboxamido)butanoate]"
7,3.3 nM,"COC(=O)C1(c2ccc(-c3ccc(CCN4CCC[C@H]4C)cc3)cc2)CCCC1 [Compound 25, (R)-Methyl 1-(4′-(2-(2-Methylpyrrolidin-1-yl)ethyl)biphenyl-4-yl)cyclopentanecarboxylate]"
8,0.96 nM,"CCOC(=O)C1CCN(C(=O)CCc2ccc(-c3ccc(CCN4CCC[C@H]4C)cc3)cc2)CC1 [Compound 35, (R)-Ethyl 1-(3-(4′-(2-(2-Methylpyrrolidin-1-yl)ethyl)biphenyl-4-yl)propanoyl)piperidine-4-carboxylate]"

# Source: patent US9365511B2, “Biphenyl-ethyl-pyrrolidine derivatives as histamine H3 receptor modulators for the treatment of cognitive disorders” (Arena Pharmaceuticals, Inc., priority 2013, dated 2016)
